Paper PMC1810525, “Antagonism of the prostaglandin D2 receptor CRTH2 attenuates asthma pathology in mouse eosinophilic airway inflammation” (Respiratory Research, 2007)

Molecular target: T1, CysLT1 (Homo sapiens, UniProt Q9Y271)
T1 sequence (Q9Y271 1-337): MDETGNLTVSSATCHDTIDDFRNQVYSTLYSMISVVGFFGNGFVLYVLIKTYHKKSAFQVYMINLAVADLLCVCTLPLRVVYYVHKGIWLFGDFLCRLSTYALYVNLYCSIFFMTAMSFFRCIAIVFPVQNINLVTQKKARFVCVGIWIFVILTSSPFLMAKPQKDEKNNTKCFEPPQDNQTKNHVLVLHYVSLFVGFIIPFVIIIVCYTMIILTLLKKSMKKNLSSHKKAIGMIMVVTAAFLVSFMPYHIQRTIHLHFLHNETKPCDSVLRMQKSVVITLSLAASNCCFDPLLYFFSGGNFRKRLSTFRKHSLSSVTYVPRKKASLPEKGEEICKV
Test: Profiling panel, radioligand binding CysLT1
Settings: 10 μM
Method: All assays were performed using recombinant human receptors and enzymes, and included the appropriate controls for assay validation. Enzymatic and binding assays, except for muscarinic binding, were performed by CEREP in vitro pharmacology profiling services. […] For stimulation of C3a, C5a, and ChemR23 receptors in InsP assays the following agonists were used: human recombinant C3a (C3a receptor), human recombinant C5a (C5a receptor), and the nonapeptide Chemerin (ChemR23).

With `CN(C1CCc2c(c3ccccc3n2CC(=O)O)C1)S(=O)(=O)c1ccc(F)cc1` (stereo not shown) [TM30089] the “% of control CysLT1” value was 116.9 ± 10.5%.
